According to article PMC7329766, “Synthesis of the Thomsen-Friedenreich-antigen (TF-antigen) and binding of Galectin-3 to TF-antigen presenting neo-glycoproteins” (Glycoconjugate Journal, 2020):
Each block holds one molecule with its values, some of them ahead of it.

Assays:
human galectin-3 (Gal-3) = target: T1, human galectin-3 (Gal-3) (Homo sapiens, UniProt P17931); assay: competitive enzyme-linked lectin assay, inhibition of Gal-3 binding to immobilized asialofetuin
T1 construct: gene LGALS3; N-terminal His6-tag (kept, used for detection), expressed in E. coli Rosetta (DE3) pLysS, IMAC purified

[1] = substrate: OC[C@H]1O[C@H](F)[C@H](O)[C@@H](O)[C@H]1O; assay: discontinuous HPLC assay, glycosynthase reaction; type: biochemical, Niallia circulans; conditions: donor substrate, acceptor GalNAc(α1-EG3-azide fixed at 5 mM), 50 mM HEPES pH 7.2, 30 °C, text gives 0.22 mM for the donor, Fig. 2 legend prints 0.22 M and assigns it to panel b (acceptor)

T1 sequence (P17931 whole entry): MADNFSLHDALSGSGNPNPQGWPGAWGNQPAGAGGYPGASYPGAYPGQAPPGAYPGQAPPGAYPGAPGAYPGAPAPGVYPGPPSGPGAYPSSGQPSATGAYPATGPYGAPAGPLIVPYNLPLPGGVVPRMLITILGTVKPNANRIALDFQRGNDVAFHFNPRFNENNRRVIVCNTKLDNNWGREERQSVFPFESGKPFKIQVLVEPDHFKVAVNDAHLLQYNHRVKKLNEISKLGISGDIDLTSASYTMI

IC50 (human galectin-3 (Gal-3)): 1560 ± 92.6 µM
Molecule: CC(=O)N[C@H]1[C@@H](OCCOCCOCCN=[N+]=[N-])O[C@H](CO)[C@H](O)[C@@H]1O[C@@H]1O[C@H](CO)[C@H](O)[C@H](O)[C@H]1O [compound 6, TF-antigen-azide]

B1: BgaC (β-galactosidase) (Niallia circulans; E233G) (protein)
chain: MSQLTYDDSFLLDGKEIRLLSGAMHYFRTVPEYWEDRLLKLKACGFNTVETYVAWNLHEPEEGQFVFEGIADIVRFIKTAEKVGLHVIVRPGPFICAEWEFGGFPYWLLTVPNIKLRCFNQPYLEKVDAYFDVLFERLRPLLSSNGGPIIALQIENEYGSFGNDQKYLQYLRDGIKKRVGNELLFTSDGPEPSMLSGGMIEGIFETVNFGSRAESAFAQLKQYQPNAPLMCMGFWHGWFDHWGEEHHTRSAESVVETLEEILKQNGSVNFYMAHGGTNFGFYNGANHNETDYQPTITSYDYDGLLTESGDVTEKFYAVRKVFEKYVDLPELNLPAPIPKRLFGKVKFTEHAGLLDSLHRISTPQKSEAPLPMEKYGQAYGFIVYETTIKGAYGKQALTVQDIHDRGQVYVNGEYVGIVERNRGCSRLVVELTEEESKLQIIVENMGRINYGPFVVDYKGITEGVRLGNQFLFDWTVYPLPLKDLSSLEFTADEVKENFPYFHKGILTVDKAADTFIDLSEWTKGVVFVNGHHLGRYWEIGPQQTLYVPAPFLQEGENEIILLELHKHHQSVTFVDTPVLGAIPKTP
notes: recombinant, plasmid pETDuet-1, E. coli BL21 (DE3), IMAC purified
Km [1]: 220 µM
